# Measurements from ChEMBL document CHEMBL1130595, “New generation dopaminergic agents. 5. Heterocyclic bioisosteres that exploit the 3-OH-N1-phenylpiperazine dopaminergic template” (Bioorg Med Chem Lett, 1998).
# pKi: −log10 of the molar value.
# Key:
# D(4) dopamine receptor = molecular target: T1, D(4) dopamine receptor (Homo sapiens, UniProt P21917); assay: Affinity towards human Dopamine receptor D4.4 expressed in CHO cells using [3H]spiperone; type: cell-based
# T1 sequence (P21917 whole entry): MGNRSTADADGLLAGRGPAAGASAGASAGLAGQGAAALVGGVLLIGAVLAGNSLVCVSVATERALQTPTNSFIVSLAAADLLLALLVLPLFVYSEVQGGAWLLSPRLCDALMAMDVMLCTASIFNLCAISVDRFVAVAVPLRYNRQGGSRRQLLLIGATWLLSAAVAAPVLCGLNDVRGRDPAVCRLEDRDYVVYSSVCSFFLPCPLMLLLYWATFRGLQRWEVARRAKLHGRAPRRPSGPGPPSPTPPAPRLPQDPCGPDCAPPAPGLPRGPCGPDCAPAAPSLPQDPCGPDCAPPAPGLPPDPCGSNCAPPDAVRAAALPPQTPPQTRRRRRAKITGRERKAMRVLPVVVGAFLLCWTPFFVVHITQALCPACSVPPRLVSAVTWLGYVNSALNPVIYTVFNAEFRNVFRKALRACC
# D(3) dopamine receptor = D(3) dopamine receptor (Homo sapiens, UniProt P35462); assay: Affinity towards human Dopamine receptor D3 expressed in CHO cells using [3H]spiperone; type: cell-based
# D(3) dopamine receptor, sequence (P35462 whole entry): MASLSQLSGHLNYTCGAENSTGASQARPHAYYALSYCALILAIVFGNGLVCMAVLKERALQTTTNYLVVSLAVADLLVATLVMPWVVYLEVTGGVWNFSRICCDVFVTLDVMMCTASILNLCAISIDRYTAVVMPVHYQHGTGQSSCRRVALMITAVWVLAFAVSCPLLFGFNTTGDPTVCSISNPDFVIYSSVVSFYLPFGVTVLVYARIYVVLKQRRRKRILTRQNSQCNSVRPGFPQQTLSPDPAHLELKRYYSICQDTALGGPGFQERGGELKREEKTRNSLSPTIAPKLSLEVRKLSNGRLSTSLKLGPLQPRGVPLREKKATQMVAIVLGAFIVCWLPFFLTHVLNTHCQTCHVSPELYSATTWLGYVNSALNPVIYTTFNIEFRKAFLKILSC
# D(2) dopamine receptor [1] = molecular target: T2, D(2) dopamine receptor (Homo sapiens, UniProt P14416); assay: Ratio of the affinity against D2 receptor at low antagonist state to that of D2 receptor at high agonist state; type: functional
# T2 sequence (P14416 whole entry): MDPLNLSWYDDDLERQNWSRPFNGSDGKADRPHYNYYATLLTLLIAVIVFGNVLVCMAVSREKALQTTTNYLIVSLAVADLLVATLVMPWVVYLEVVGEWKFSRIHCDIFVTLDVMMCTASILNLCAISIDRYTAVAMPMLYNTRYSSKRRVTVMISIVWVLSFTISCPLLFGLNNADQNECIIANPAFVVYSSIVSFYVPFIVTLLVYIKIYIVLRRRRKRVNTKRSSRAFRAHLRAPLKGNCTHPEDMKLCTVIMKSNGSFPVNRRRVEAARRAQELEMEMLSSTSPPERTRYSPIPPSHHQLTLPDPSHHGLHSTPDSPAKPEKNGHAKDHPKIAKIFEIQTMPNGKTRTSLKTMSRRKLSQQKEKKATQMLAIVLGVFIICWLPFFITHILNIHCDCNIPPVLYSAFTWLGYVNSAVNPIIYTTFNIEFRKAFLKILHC
# D(2) dopamine receptor [2] = molecular target: T2, D(2) dopamine receptor; assay: Affinity towards human Dopamine receptor D2 expressed in CHO cells using [3H]spiperone; type: cell-based
# D(2) dopamine receptor [3] = molecular target: T3, D(2) dopamine receptor (Rattus norvegicus, UniProt P61169)
# T3 sequence (P61169 whole entry): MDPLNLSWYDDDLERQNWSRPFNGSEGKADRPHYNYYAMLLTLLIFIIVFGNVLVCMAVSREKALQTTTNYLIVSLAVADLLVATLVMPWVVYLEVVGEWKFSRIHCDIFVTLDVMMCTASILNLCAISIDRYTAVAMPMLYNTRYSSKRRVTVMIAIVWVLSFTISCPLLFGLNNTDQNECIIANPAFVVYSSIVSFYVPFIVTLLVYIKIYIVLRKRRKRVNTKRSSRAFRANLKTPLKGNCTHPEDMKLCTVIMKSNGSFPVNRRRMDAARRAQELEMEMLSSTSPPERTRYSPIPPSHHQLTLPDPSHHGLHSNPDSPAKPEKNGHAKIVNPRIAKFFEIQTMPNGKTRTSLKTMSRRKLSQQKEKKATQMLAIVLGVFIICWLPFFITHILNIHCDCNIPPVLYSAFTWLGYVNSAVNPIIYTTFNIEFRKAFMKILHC
# Description: Affinity for Dopamine receptor D2 in rat striatal membranes for high agonist state using [3H]quinpirole
# D(2) dopamine receptor [4] = molecular target: T3, D(2) dopamine receptor; remark: listed apart in the source
# Description: Affinity of compound for the Dopamine receptor D2 in rat striatal membranes was determined for low antagonist state in rat striatal membranes using [3H]spiperone
# D(2) dopamine receptor [5] = molecular target: T3, D(2) dopamine receptor; assay: Affinity of compound for the Dopamine receptor D2 in rat striatal membranes was determined for […] in rat striatal membranes using [3H]spiperone; type: functional, cell membranes, Membrane
# D(2) dopamine receptor [6] = molecular target: T3, D(2) dopamine receptor; assay: Affinity of compound for the D2 receptors in rat striatal membranes was determined for low antagonist state in rat striatal membranes using [3H]spiperone; type: functional, cell membranes, Membrane
Structure (SMILES),pKi (D(4) dopamine receptor),pKi (D(3) dopamine receptor),Ratio (D(2) dopamine receptor [1]),pKi (D(2) dopamine receptor [2]),pKi (D(2) dopamine receptor [3]),pKi (D(2) dopamine receptor [4]),pKi (D(2) dopamine receptor [5]),pKi (D(2) dopamine receptor [6])
O=c1[nH]c2cccc(N3CCN(Cc4ccccc4)CC3)c2[nH]1,7.84,7.25,,,,,,
c1ccc(CN2CCN(c3cccc4[nH]ccc34)CC2)cc1,7.83,7.45,,,,,,
c1ccc(CN2CCN(c3cccc4[nH]cnc34)CC2)cc1,7.33,6.06,11,6.59,8.01,6.97,,
FC(F)(F)c1nc2c(N3CCN(Cc4ccccc4)CC3)cccc2[nH]1,8.54,7.83,6,8.39,9.29,,8.48,
O=C1Cc2c(cccc2N2CCN(Cc3ccccc3)CC2)N1,8.52,8.27,14,8.10,9.25,8.09,,
Brc1ccc(N2CCN(Cc3ccccc3)CC2)c2cc[nH]c12,8.59,7.25,0.5,7.33,7.57,7.91,,
O=C1Cc2c(ccc(Cl)c2N2CCN(Cc3ccccc3)CC2)N1,8.06,6.23,7,6.27,7.07,6.39,,
Clc1ccc2[nH]ccc2c1N1CCN(Cc2ccccc2)CC1,8.77,7.02,5,7.09,8.04,,,7.37
